Reference: US8299267B2, “(3-hydroxy-4-amino-butan-2-yl) -3- (2-thiazol-2-yl-pyrrolidine-1-carbonyl) benzamide derivatives and related compounds as beta-secretase inhibitors for treating” (CoMentis, Inc., priority 2007, dated 2012)

Assays:
[1] = molecular target: memapsin 2 (Homo sapiens, UniProt P56817); test: Inhibition of memapsin 2 beta-secretase activity toward fluorogenic substrate FS-2; assay type: biochemical; conditions: memapsin 2, pH 4, 37° C., 20 minutes pre-incubation, substrate FS-2; read-out: M2Ki
Experimental: Potency of compounds were determined by measurement of their inhibition of memapsin 2 activity toward a fluorescent substrate. Kinetic inhibition experiments were performed using the procedure as described in Ermolieff, et al. (Biochemistry 39:12450-12456 (2000), the teachings of which are incorporated hereby in their entirety). Briefly, assays were performed at pH 4, 37° C., by pre-incubation of memapsin 2 enzyme with compound for 20 minutes. Activity measurements were initiated by addition of a fluorogenic substrate FS-2 (Bachem Americas, Torrance, Calif.) MCA-SEVNLDAEFK-DNP (SEQ ID NO.: 2). The substrate was derived from 10 amino acids of the human amyloid precursor protein (APP), with the Swedish variant amino acids at the beta-secretase cleavage site. The terminal amino acid was modified from arginine to lysine to facilitate derivatization with a functional group for detection by autofluorescence. The amino acid sequence of the “core” peptide of the substrate is SEVNLDAEFK (SEQ ID NO.: 3). The amino terminus was derivatized with (7-methoxycoumarin-4-yl)acetyl (MCA), and the epsilon amine of the lysine side chain of the terminal residue (K in sequence SEVNLDAEFK (SEQ ID NO.: 4)) was derivatized with 2,4-dinitrophenyl (DNP).

[2] = tested on: Aβ production in Chinese hamster ovary cells that over-express human APP695 with the London and Swedish mutations; test: Cellular Aβ IC50 determination (Aβ40 sandwich ELISA); assay type: cell-based; conditions: Cricetulus griseus; Aβ40 in CHO cells over-expressing human APP695, 24 h incubation
Experimental: The potency of compounds against memapsin 2 activity was determined in a cellular assay of Aβ production. […] Chinese hamster ovary cells that over-express human APP695 with the London and Swedish mutations were seeded in multi-well plates at 10% confluency. Compounds are dissolved in DMSO to concentrations near 1 mM, and diluted into culture media to a final concentration near 4 μM (final 0.4% DMSO). Compounds were diluted serially and applied to cells in multi-well plates 48 h after seeding. Incubation was continued in 5% CO2 at 37° C. for 24 h. Aliquots were removed and assayed for Aβ40 content using a sandwich ELISA (BioSource International). Amount of Aβ40 over the range of concentration of compounds, relative to control incubations, were fit to a 4-parameter IC50 model.

Sequence of memapsin 2 (P56817 46-501): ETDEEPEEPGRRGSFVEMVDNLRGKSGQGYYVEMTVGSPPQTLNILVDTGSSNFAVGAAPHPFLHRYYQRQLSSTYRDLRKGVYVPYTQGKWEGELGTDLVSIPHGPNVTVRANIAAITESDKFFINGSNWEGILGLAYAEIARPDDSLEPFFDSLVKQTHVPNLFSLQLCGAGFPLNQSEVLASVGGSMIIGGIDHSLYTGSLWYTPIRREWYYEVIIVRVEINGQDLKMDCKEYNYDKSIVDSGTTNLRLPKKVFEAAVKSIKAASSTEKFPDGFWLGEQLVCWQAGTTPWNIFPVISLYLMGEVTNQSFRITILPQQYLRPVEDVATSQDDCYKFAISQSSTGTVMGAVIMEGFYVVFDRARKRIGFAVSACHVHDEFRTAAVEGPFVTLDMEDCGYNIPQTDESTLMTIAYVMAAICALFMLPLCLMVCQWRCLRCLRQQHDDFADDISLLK

Row | Structure (SMILES) | Ki [1] | IC50 [2]
1 | Cc1csc([C@H]2CCCN2C(=O)c2cccc(C(=O)N[C@@H](Cc3ccccc3)[C@H](O)CN[C@H](C)c3cncc(C(C)C)c3)c2)n1 [Compound 46, N-((2S,3R)-3-hydroxy-4-((R)-1-(5-isopropylpyridin-3-yl)ethylamino)-1-phenylbutan-2-yl)-3-((R)-2-(4-methylthiazol-2-yl)pyrrolidine-1-carbonyl)benzamide] | < 100 nM | < 300 nM
2 | Cc1csc([C@H]2CCCN2C(=O)c2cc(C(=O)N[C@@H](Cc3ccccc3)[C@H](O)CNCc3cccc(C(F)(F)F)c3)cc(-c3ncco3)c2)n1 [Compound 28, N-((2S,3R)-3-hydroxy-1-phenyl-4-(3-(trifluoromethyl)benzylamino)butan-2-yl)-3-((R)-2-(4-methylthiazol-2-yl)pyrrolidine-1-carbonyl)-5-(oxazol-2-yl)benzamide] | < 100 nM | < 300 nM
3 | COc1cccc(CNC[C@@H](O)[C@H](Cc2ccccc2)NC(=O)c2cccc(C(=O)N3CSC[C@@H]3c3nc(C)cs3)c2)c1 [Compound 8, N-((2S,3R)-3-hydroxy-4-(3-methoxybenzylamino)-1-phenylbutan-2-yl)-3-((R)-4-(4-methylthiazol-2-yl)thiazolidine-3-carbonyl)benzamide] | < 100 nM | < 300 nM
4 | Cc1csc([C@H]2CCCN2C(=O)c2cc(C(=O)N[C@@H](Cc3ccccc3)[C@H](O)CNCc3cccc(Cl)c3)cc(N(C)C)c2)n1 [Compound 47, N-((2S,3R)-4-(3-chlorobenzylamino)-3-hydroxy-1-phenylbutan-2-yl)-3-(dimethylamino)-5-((R)-2-(4-methylthiazol-2-yl)pyrrolidine-1-carbonyl)benzamide] | < 100 nM | < 300 nM
5 | COc1cccc([C@H](C)NC[C@@H](O)[C@H](Cc2ccccc2)NC(=O)c2cccc(C(=O)N3CCC[C@@H]3c3nc(C)cs3)c2)c1 [Compound 22, N-((2S,3R)-3-hydroxy-4-((S)-1-(3-methoxyphenyl)ethylamino)-1-phenylbutan-2-yl)-3-((R)-2-(4-methylthiazol-2-yl)pyrrolidine-1-carbonyl)benzamide] | < 100 nM | < 300 nM
6 | COC[C@H]1CCCN1C(=O)c1cc(C)cc(C(=O)N[C@@H](Cc2ccccc2)[C@H](O)CNCc2cccc(OC)c2)c1 [Compound 3, N-((2S,3R)-3-hydroxy-4-(3-methoxybenzylamino)-1-phenylbutan-2-yl)-3-((R)-2-(methoxymethyl)pyrrolidine-1-carbonyl)-5-methylbenzamide] | < 100 nM | < 300 nM
7 | Cc1coc([C@H]2CCCN2C(=O)c2cccc(C(=O)N[C@@H](Cc3ccccc3)[C@H](O)CNCc3cccc(C(F)(F)F)c3)c2)n1 [Compound 35, N-((2S,3R)-3-hydroxy-1-phenyl-4-(3-(trifluoromethyl)benzylamino)butan-2-yl)-3-((R)-2-(4-methyloxazol-2-yl)pyrrolidine-1-carbonyl)benzamide] | < 100 nM | < 300 nM
8 | Cc1csc([C@H]2CCCN2C(=O)c2cc(C(=O)N[C@@H](Cc3ccccc3)[C@H](O)CNCc3cncc(C(C)C)c3)cc(N(C)C)c2)n1 [Compound 29, 3-(dimethylamino)-N-((2S,3R)-3-hydroxy-4-((5-isopropylpyridin-3-yl)methylamino)-1-phenylbutan-2-yl)-5-((R)-2-(4-methylthiazol-2-yl)pyrrolidine-1-carbonyl)benzamide] | < 100 nM | < 300 nM
9 | COc1cccc(CNC[C@@H](O)[C@H](Cc2ccccc2)NC(=O)c2cccc(C(=O)N3CCCC3)c2)c1 [Compound 21, N-((2S,3R)-3-hydroxy-4-(3-methoxybenzylamino)-1-phenylbutan-2-yl)-3-(pyrrolidine-1-carbonyl)benzamide] | > 201 nM | > 501 nM
10 | Cc1csc([C@H]2CCCN2C(=O)c2cccc(C(=O)N[C@@H](Cc3ccccc3)[C@H](O)CNCc3cc(C)on3)c2)n1 [Compound 66, N-((2S,3R)-3-hydroxy-4-((5-methylisoxazol-3-yl)methylamino)-1-phenylbutan-2-yl)-3-((R)-2-(4-methylthiazol-2-yl)pyrrolidine-1-carbonyl)benzamide] | < 100 nM | < 300 nM

Further lines, results first:

Row | Ki [1] | IC50 [2] | Structure (SMILES)
11 | 101 to 200 nM | < 300 nM | Cc1csc([C@H]2CCCN2C(=O)c2cc(C(=O)N[C@@H](Cc3ccccc3)[C@H](O)CNCc3cccc(C(F)(F)F)c3)cc(-c3ccc(F)nc3)n2)n1 [Compound 88, 6′-fluoro-N-((2S,3R)-3-hydroxy-1-phenyl-4-(3-(trifluoromethyl)benzylamino)butan-2-yl)-6-((R)-2-(4-methylthiazol-2-yl)pyrrolidine-1-carbonyl)-2,3′-bipyridine-4-carboxamide]
12 | < 100 nM | < 300 nM | Cc1coc([C@H]2CCCN2C(=O)c2cc(C(=O)N[C@@H](Cc3ccccc3)[C@H](O)CNCc3cncc(C(C)(C)F)c3)cc(-c3ncco3)c2)n1 [Compound 90, N-((2S,3R)-4-((5-(2-fluoropropan-2-yl)pyridin-3-yl)methylamino)-3-hydroxy-1-phenylbutan-2-yl)-3-((R)-2-(4-methyloxazol-2-yl)pyrrolidine-1-carbonyl)-5-(oxazol-2-yl)benzamide]
13 | < 100 nM | < 300 nM | Cc1coc([C@H]2CCCN2C(=O)c2cc(C(=O)N[C@@H](Cc3ccccc3)[C@H](O)CNCc3cccc(C(F)(F)F)c3)cc(-c3ncco3)c2)n1 [Compound 87, N-((2S,3R)-3-hydroxy-1-phenyl-4-(3-(trifluoromethyl)benzylamino)butan-2-yl)-3-((R)-2-(4-methyloxazol-2-yl)pyrrolidine-1-carbonyl)-5-(oxazol-2-yl)benzamide]
14 | < 100 nM | < 300 nM | Cc1cc(C(=O)N[C@@H](Cc2ccccc2)[C@H](O)CNCc2cccc(C(F)(F)F)c2)cc(C(=O)N2CCC[C@@H]2c2nc(C)co2)n1 [Compound 84, N-((2S,3R)-3-hydroxy-1-phenyl-4-(3-(trifluoromethyl)benzylamino)butan-2-yl)-2-methyl-6-((R)-2-(4-methyloxazol-2-yl)pyrrolidine-1-carbonyl)isonicotinamide]
15 | < 100 nM | < 300 nM | Cc1coc([C@H]2CCCN2C(=O)c2cccc(C(=O)N[C@@H](Cc3ccccc3)[C@H](O)CNCc3cccc(C(C)(C)C)c3)c2)n1 [Compound 70, N-((2S,3R)-4-(3-tert-butylbenzylamino)-3-hydroxy-1-phenylbutan-2-yl)-3-((R)-2-(4-methyloxazol-2-yl)pyrrolidine-1-carbonyl)benzamide]
16 | < 100 nM | < 300 nM | Cc1csc([C@H]2CCCN2C(=O)c2cc(C(=O)N[C@@H](Cc3ccccc3)[C@H](O)CNCc3cccc(C(F)(F)F)c3)nc(N(C)C)c2)n1 [Compound 81, 6-(dimethylamino)-N-((2S,3R)-3-hydroxy-1-phenyl-4-(3-(trifluoromethyl)benzylamino)butan-2-yl)-4-((R)-2-(4-methylthiazol-2-yl)pyrrolidine-1-carbonyl)picolinamide]
17 | < 100 nM | < 300 nM | Cc1coc([C@H]2CCCN2C(=O)c2cc(CF)cc(C(=O)N[C@@H](Cc3ccccc3)[C@H](O)CNCc3cncc(C(C)(C)F)c3)c2)n1 [Compound 78, 3-(fluoromethyl)-N-((2S,3R)-4-((5-(2-fluoropropan-2-yl)pyridin-3-yl)methylamino)-3-hydroxy-1-phenylbutan-2-yl)-5-((R)-2-(4-methyloxazol-2-yl)pyrrolidine-1-carbonyl)benzamide]
